Each structure is given as a SMILES string.

Series [1] addresses Delta-type opioid receptor (Homo sapiens) (UniProt P41143). Nature of the series: Compound was evaluated for the percentage of maximum inhibition at opioid receptor delta.
Series [2] deals with T1, Delta-type opioid receptor (Mus musculus, UniProt P32300). Nature of the series: Compound was evaluated for […] at Opioid receptor delta 1.
For series [3], the target named is T2, Delta-type opioid receptor (Rattus norvegicus, UniProt P33533). The experiment in a line: Compound was evaluated for the binding affinity in comparison with [3H][p-Cl-Phe4]-DPDPE (delta opioid receptor selective ligand).
T2 sequence (P33533 whole entry): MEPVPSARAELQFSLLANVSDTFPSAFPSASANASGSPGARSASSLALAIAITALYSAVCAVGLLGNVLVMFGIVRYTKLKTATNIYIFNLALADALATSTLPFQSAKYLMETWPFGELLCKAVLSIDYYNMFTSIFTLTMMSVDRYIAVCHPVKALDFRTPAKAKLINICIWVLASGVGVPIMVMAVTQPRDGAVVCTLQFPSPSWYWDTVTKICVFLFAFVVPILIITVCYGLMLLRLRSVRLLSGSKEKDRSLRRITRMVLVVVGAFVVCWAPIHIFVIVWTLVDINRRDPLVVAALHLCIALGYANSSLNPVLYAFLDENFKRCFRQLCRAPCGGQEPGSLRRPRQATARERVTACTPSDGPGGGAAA
The target in series [4] is T3, Mu-type opioid receptor (Rattus norvegicus, UniProt P33535). Nature of the series: Compound was evaluated for its ability to displace [3H]- CTOP (mu opioid receptor selective ligand).
T3 sequence (P33535 whole entry): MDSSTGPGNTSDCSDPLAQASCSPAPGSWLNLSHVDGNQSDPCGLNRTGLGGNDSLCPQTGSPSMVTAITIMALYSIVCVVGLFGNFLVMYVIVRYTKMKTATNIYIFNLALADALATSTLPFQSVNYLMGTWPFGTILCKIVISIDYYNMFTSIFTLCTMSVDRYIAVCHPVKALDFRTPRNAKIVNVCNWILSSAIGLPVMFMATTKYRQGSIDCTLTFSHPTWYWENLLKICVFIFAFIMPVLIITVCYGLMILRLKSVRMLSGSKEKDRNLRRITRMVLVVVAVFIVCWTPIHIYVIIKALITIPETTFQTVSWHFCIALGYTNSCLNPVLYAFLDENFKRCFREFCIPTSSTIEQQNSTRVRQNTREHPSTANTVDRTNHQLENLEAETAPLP
A short description of series [5]: Macroscopic pKa value of the compound. The series is classed as physicochemical.
For series [6], the target named is T1, Delta-type opioid receptor. The experiment in a line: Compound was evaluated for its inhibitory potency against Opioid receptor delta 1 of Mouse vas deferens. The series is classed as tissue-based.
For series [7], the target named is T1, Delta-type opioid receptor. The experiment in a line: Compound was evaluated for its inhibitory potency against opioid receptor delta of Mouse vas deferens. The series is classed as tissue-based.
Series [8] concerns the target T3, Mu-type opioid receptor. Nature of the series: Compound was evaluated for its ability to displace [3H]- CTOP (opioid receptor mu selective ligand).
The target in series [9] is T2, Delta-type opioid receptor. The experiment in a line: Compound was evaluated for the binding affinity in comparison with [3H][p-Cl-Phe4]-DPDPE (opioid receptor delta selective ligand).
For series [10], the target named is T2, Delta-type opioid receptor. The experiment in a line: Compound was evaluated for the binding affinity in comparison with [3H]- DPDPE (opioid receptor delta selective ligand).

T1 sequence (P32300 whole entry): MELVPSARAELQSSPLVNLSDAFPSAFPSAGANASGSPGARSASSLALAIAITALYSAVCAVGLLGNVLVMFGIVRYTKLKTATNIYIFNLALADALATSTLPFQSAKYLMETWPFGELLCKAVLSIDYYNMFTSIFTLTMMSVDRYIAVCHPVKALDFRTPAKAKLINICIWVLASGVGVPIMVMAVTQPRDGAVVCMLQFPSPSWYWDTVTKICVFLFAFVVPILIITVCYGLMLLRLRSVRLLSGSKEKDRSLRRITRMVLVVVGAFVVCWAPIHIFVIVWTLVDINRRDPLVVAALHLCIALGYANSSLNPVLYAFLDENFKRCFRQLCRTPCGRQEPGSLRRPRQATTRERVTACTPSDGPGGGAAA
Sequence of Delta-type opioid receptor (Homo sapiens) (P41143 whole entry): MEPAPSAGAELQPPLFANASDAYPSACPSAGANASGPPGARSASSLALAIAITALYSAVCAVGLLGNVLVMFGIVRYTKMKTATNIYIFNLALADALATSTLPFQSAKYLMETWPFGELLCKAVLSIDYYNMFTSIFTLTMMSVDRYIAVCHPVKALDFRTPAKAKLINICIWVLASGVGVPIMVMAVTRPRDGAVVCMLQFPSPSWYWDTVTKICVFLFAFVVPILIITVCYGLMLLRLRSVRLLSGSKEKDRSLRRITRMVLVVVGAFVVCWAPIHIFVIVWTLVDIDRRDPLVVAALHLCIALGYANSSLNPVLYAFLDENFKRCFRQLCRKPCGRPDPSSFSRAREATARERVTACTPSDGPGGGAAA

Consider `CC1(C)SSC(C)(C)[C@@H](NC(=O)[C@]2(N)CCC3C=C(O)C=CC3C2)C(=O)NCC(=O)N[C@@H](Cc2ccccc2)C(=O)N[C@H]1C(=O)O` (stereo in doubt; 8) [listing 1 of 2 here], for which the Emax (in general, the size of the effect at its maximum, as opposed to the concentration needed) in series [1] is 31%.
Take `Cc1cc(O)ccc1C[C@@H](N)C(=O)N[C@H]1C(=O)NCC(=O)N[C@@H](Cc2ccccc2)C(=O)N[C@@H](C(=O)O)C(C)(C)SSC1(C)C`: the IC50 (in general, the concentration at which inhibition is half-maximal) came to 763 nM in [2], 1130 nM in [3] and 16600 nM on Mu-type opioid receptor [4].
With `C[C@H](c1ccc(O)cc1)[C@H](N)C(=O)N[C@H]1C(=O)NCC(=O)N[C@@H](Cc2ccccc2)C(=O)N[C@@H](C(=O)O)C(C)(C)SSC1(C)C`, the half-maximal inhibitory concentration (IC50) was 14.6 nM in [2], 84.8 nM in [3] and over 20000 nM on Mu-type opioid receptor [4].
Consider `CC1(C)SSC(C)(C)[C@@H](NC(=O)[C@@H](N)Cc2ccc(O)c([N+](=O)[O-])c2)C(=O)NCC(=O)N[C@@H](Cc2ccccc2)C(=O)N[C@H]1C(=O)O`, for which the pKa (as a rule, the pH at which an ionisable group is half protonated) in [5] amounted to 7.2.
On to `C[C@H](c1ccc(O)cc1)[C@@H](N)C(=O)N[C@H]1C(=O)NCC(=O)N[C@@H](Cc2ccccc2)C(=O)N[C@@H](C(=O)O)C(C)(C)SSC1(C)C`, for which the half-inhibitory concentration (IC50) in series [6] is 20700 nM; in series [3] it was 426 nM; at Mu-type opioid receptor [4] it was 22800 nM.
In the case of `CC1(C)SSC(C)(C)[C@@H](NC(=O)[C@@H](N)Cc2ccc(O)c(N)c2)C(=O)NCC(=O)N[C@@H](Cc2ccccc2)C(=O)N[C@H]1C(=O)O`, the pKa in series [5] came out at 10.
For the compound `CC1(C)SSC(C)(C)[C@@H](NC(=O)[C@]2(N)CCC3C=C(O)C=CC3C2)C(=O)NCC(=O)N[C@@H](Cc2ccccc2)C(=O)N[C@H]1C(=O)O` (stereo in doubt; 8) [listing 2 of 2 here], the IC50 came to 137 nM in series [7], 2820 nM at Mu-type opioid receptor [8] and 24.5 nM in series [9].
Take `COc1cc(C[C@H](N)C(=O)N[C@H]2C(=O)NCC(=O)N[C@@H](Cc3ccccc3)C(=O)N[C@@H](C(=O)O)C(C)(C)SSC2(C)C)ccc1O`: the pKa in [5] is 9.7.
For `CC1(C)SSC(C)(C)[C@@H](NC(=O)[C@]2(N)CCC3C=C(O)C=CC3C2)C(=O)NCC(=O)N[C@@H](Cc2ccccc2)C(=O)N[C@H]1C(=O)O` (stereo in doubt; 9) [listing 1 of 2 here], the Emax in series [1] amounted to 79%.
As to `CC1(C)SSC(C)(C)[C@@H](NC(=O)[C@@H](N)Cc2ccc(O)c(I)c2)C(=O)NCC(=O)N[C@@H](Cc2ccccc2)C(=O)N[C@H]1C(=O)O`, in series [5], the pKa was found to be 8.2.
As for `Cc1cc(O)ccc1C[C@H](N)C(=O)N[C@H]1C(=O)NCC(=O)N[C@@H](Cc2ccccc2)C(=O)N[C@@H](C(=O)O)C(C)(C)SSC1(C)C`, the IC50 in [10] worked out at 0.89 nM; in series [7] it was 4.52 nM; on Mu-type opioid receptor [8], 1170 nM.
As for `CC1(C)SSC(C)(C)[C@@H](NC(=O)[C@]2(N)CCC3C=C(O)C=CC3C2)C(=O)NCC(=O)N[C@@H](Cc2ccccc2)C(=O)N[C@H]1C(=O)O` (stereo in doubt; 9) [listing 2 of 2 here], the values for the IC50 (in series [7]; on Mu-type opioid receptor [8]; in [9]) were 22 nM, 1440 nM and 2.36 nM, respectively.
On to `C[C@@H](c1ccc(O)cc1)[C@H](N)C(=O)N[C@H]1C(=O)NCC(=O)N[C@@H](Cc2ccccc2)C(=O)N[C@@H](C(=O)O)C(C)(C)SSC1(C)C`, for which the IC50 was determined as 243 nM in series [2], 440 nM in series [3] and 18600 nM on Mu-type opioid receptor [4].
For the compound `C[C@@H](c1ccc(O)cc1)[C@@H](N)C(=O)N[C@H]1C(=O)NCC(=O)N[C@@H](Cc2ccccc2)C(=O)N[C@@H](C(=O)O)C(C)(C)SSC1(C)C`, the IC50 in [2] was 698 nM; in series [3] it was 20000 nM; at Mu-type opioid receptor [4], over 40000 nM.
